Laboratory results: patent US6461997B1, “Triazole sulfones having herbicidal activity” (Monsanto Technology LLC, priority 1999, dated 2002)

Assays:
[1] = test system: SORVU (shattercane); assay: Pre-plant incorporated (PPI) herbicidal activity, warm season; assay type: in vivo, Sorghum vulgare; conditions: for inhibition at 10 g/ha / inhibition at 30 g/ha / inhibition at 100 g/ha / inhibition at 300 g/ha / inhibition at 900 g/ha: Sorghum bicolor, PPI application, read-out: Percent inhibition SORVU; for PPI activity GR80, SORVU: pre-plant incorporated, lowest tested rate with 80% or greater inhibition, about 14 days
Experimental: (§1) In another set of tests, the pre-plant incorporated (PPI) activity of compounds of this invention was evaluated on the same species as for the pre-emergence tests described above. In the PPI tests the following procedure, designed to simulate PPI application, was used.
(§2) A pre-prepared topsoil mixture (described above) was placed in a pot and compacted to a depth of 1.0 to 1.25 cm from the top of the pot. Seeds of each of several monocotyledonous and dicotyledonous annual plant species were placed on top of the soil. A sufficient quantity of soil to cover the seeds and level fill the pot was weighed into an open container. A known amount of the test compound was dissolved or suspended in an organic solvent and applied by spraying to this cover soil. The cover soil was thoroughly mixed to distribute the test compound throughout the cover soil, and was then applied as a cover layer over the seeds. Untreated soil was used as a cover layer for control pots. After treatment the plants were placed in a greenhouse where they received 0.64 cm of overhead irrigation. All subsequent watering consisted of a light overhead mist and/or subirrigation as needed for germination and growth. Tables 9 and 10 below relate to warm season plant species which were placed after pre-emergence treatment in a greenhouse with a 30/21° C. day/night temperature regime. Tables 11 and 12 below relates to cool season plant species placed after pre-emergence treatment in a greenhouse or growth chamber with an 18/13° C. day/night temperature regime. Only the compounds of Examples 1, 6, 8, 11, 13 and 15-20 were included in PPI tests.
(§3) Approximately 14 days after planting and treating, the plants were observed and herbicidal efficacy recorded as percent inhibition by comparison with untreated plants.

[2] = test system: SOLNI (black nightshade); assay: as above; assay type: in vivo, Solanum nigrum; conditions: for inhibition at 10 g/ha / inhibition at 30 g/ha / inhibition at 100 g/ha / inhibition at 300 g/ha / inhibition at 900 g/ha: Solanum nigrum, PPI application, read-out: Percent inhibition SOLNI; for PPI activity (GR80) SOLNI: pre-plant incorporated, GR80 = lowest tested rate with 80% or greater inhibition, approx. 14 days after treating, 30/21° C.
Experimental: as §1, §2, §3

[3] = test system: PANMI (wild proso millet); assay: as above; assay type: in vivo, Panicum miliaceum; conditions: for inhibition at 10 g/ha / inhibition at 30 g/ha / inhibition at 100 g/ha / inhibition at 300 g/ha / inhibition at 900 g/ha: Panicum miliaceum, PPI application, read-out: Percent inhibition PANMI; for PPI activity GR80, PANMI: pre-plant incorporated, lowest tested rate with 80% or greater inhibition, about 14 days
Experimental: as §1, §2, §3

[4] = test system: VERPE (creeping speedwell); assay: Pre-emergence herbicidal activity, cool season; assay type: in vivo, Veronica persicaria; conditions: lowest tested rate with 80% or greater inhibition; rates 300, 100, 30, 10 g/ha; about 14 days
Method in brief: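 GR80 values derive from percent inhibition relative to untreated plants, read roughly 14 days after sowing and pre-emergence soil-surface treatment (compound in 50:50 acetone/water; rates typically 10, 30, 100, 300 g/ha). Warm-season weeds grew at 30/21° C day/night, cool-season ones at 18/13° C; an asterisk marks activity without reaching 80% at the highest rate.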

[5] = test system: CHEAL (common lambsquarters); assay: Pre-plant incorporated (PPI) herbicidal activity, warm season; assay type: in vivo, Chenopodium album; conditions: pre-plant incorporated; GR80 = lowest tested rate with 80% or greater inhibition; approx. 14 days after treating; 30/21° C.
Experimental: as §1, §2, §3

[6] = test system: SORVU (shattercane); assay: Pre-emergence herbicidal activity, warm season; assay type: in vivo, Sorghum vulgare; conditions: for Pre-emergence activity (GR80) SORVU: GR80 = lowest tested rate (300, 100, 30, 10 g/ha) with 80% or greater inhibition, approx. 14 days after treating, 30/21° C.; for inhibition at 10 g/ha / inhibition at 30 g/ha / inhibition at 100 g/ha / inhibition at 300 g/ha / inhibition at 900 g/ha: Sorghum bicolor, pre-emergence application, read-out: Percent inhibition, weed SORVU
Method in brief: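 Seeds sown in sterilised fertilised topsoil received surface-applied compound in 50:50 acetone/water, typically at 300, 100, 30 and 10 g/ha, then greenhouse-grown at 30/21° C (warm-season species) or 18/13° C (cool-season species). Percent inhibition versus untreated plants was scored at about 14 days, giving GR80; an asterisk marks activity short of 80% at the top rate.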

[7] = test system: corn (ZEAMX); assay: Selectivity test, PPI, warm season crop; assay type: in vivo, Zea mays; conditions: Zea mays, PPI application, read-out: Percent inhibition ZEAMX
Experimental: as §2, §3
Additional pre-emergence and PPI tests were conducted by the procedures described above, on warm and cool season weed species in the presence of crop species, to assess herbicidal selectivity. Crop species included in warm season tests were corn (Zea mays, ZEAMX), rice (Oryza sativa, ORYSA) and soybean (Glycine max, GLYMX). Crop species included in cool season tests were wheat (Triticum aestivum, TRZAW), barley (Hordeunm vulgare, HORVX) and oilseed rape (Brassica napus, BRSNS).
Tables 15 and 16 relate to pre-emergence and PPI tests respectively on warm season species. Table 17 relates to pre-emergence tests on cool season species.

SMILES	inhibition at 10 g/ha [1]	inhibition at 30 g/ha [1]	inhibition at 100 g/ha [1]	inhibition at 300 g/ha [1]	inhibition at 900 g/ha [1]	PPI activity GR80, SORVU [1]	inhibition at 10 g/ha [2]	inhibition at 30 g/ha [2]	inhibition at 100 g/ha [2]	inhibition at 300 g/ha [2]	inhibition at 900 g/ha [2]	PPI activity (GR80) SOLNI [2]	inhibition at 10 g/ha [3]	inhibition at 30 g/ha [3]	inhibition at 100 g/ha [3]	inhibition at 300 g/ha [3]	PPI activity GR80, PANMI [3]	Pre-emergence activity GR80, VERPE [4]	PPI activity (GR80) CHEAL [5]	Pre-emergence activity (GR80) SORVU [6]	other results
CCN(CC)C(=O)n1cnc(S(=O)(=O)C(F)(F)Br)n1 [Example 1, 3-(bromodifluoromethylsulfonyl)-1-(N,N-diethylcarbamoyl)-1,2,4-triazole]	20%	80%	100%	100%	100%	100 g/ha	0%	0%	0%	75%	100%	30 g/ha	0%	60%	99%	100%	30 g/ha	100 g/ha	300 g/ha	* (activity observed, at least at highest rate, but <80% inhibition)	inhibition at 900 g/ha [3]: 100%; inhibition at 10 g/ha [6]: 0%; inhibition at 30 g/ha [6]: 0%; inhibition at 100 g/ha [6]: 60%; inhibition at 300 g/ha [6]: 80%; inhibition at 900 g/ha [6]: 95%; inhibition at 10 g/ha [7]: 0%; inhibition at 30 g/ha [7]: 0%; inhibition at 100 g/ha [7]: 0%; inhibition at 300 g/ha [7]: 25%; inhibition at 900 g/ha [7]: 70%
CCN(CC)C(=O)n1cnc(S(=O)(=O)C(F)(F)C(=O)c2ccccc2)n1 [Example 6]						300 g/ha						100 g/ha					100 g/ha	300 g/ha	100 g/ha	* (activity observed, at least at highest rate, but <80% inhibition)	
CCN(CC)C(=O)n1cnc(S(=O)(=O)C(F)F)n1 [Example 15, 1-(N,N-diethylcarbamoyl)-3-(difluoromethylsulfonyl)-1,2,4-triazole]	10%	60%	100%	100%	100%	300 g/ha	0%	0%	20%	100%	99%	100 g/ha	10%	70%	99%	100%	30 g/ha		100 g/ha	* (activity observed, at least at highest rate, but <80% inhibition)	inhibition at 900 g/ha [3]: 100%; inhibition at 10 g/ha [6]: 0%; inhibition at 30 g/ha [6]: 0%; inhibition at 100 g/ha [6]: 20%; inhibition at 300 g/ha [6]: 60%; inhibition at 900 g/ha [6]: 95%; inhibition at 10 g/ha [7]: 0%; inhibition at 30 g/ha [7]: 0%; inhibition at 100 g/ha [7]: 20%; inhibition at 300 g/ha [7]: 60%; inhibition at 900 g/ha [7]: 85%
CCN(CC)C(=O)n1cnc(S(=O)(=O)C(F)(F)C(F)(F)SC)n1 [Example 14]																		300 g/ha		* (activity observed, at least at highest rate, but <80% inhibition)	
